{"source": "paper PMC10994195", "about": "(Journal of medicinal chemistry, 2024)", "key": {"[1]": {"conditions": "rats; cited from earlier work"}, "[2]": {"conditions": "cited from earlier work"}, "[3]": {"assay": "In vivo pharmacokinetics in mice", "conditions": "mice plasma PK"}, "Mouse pharmacokinetics": {"assay": "Mouse pharmacokinetics", "type": "in vivo, C3H/HeN mice", "conditions": "mice, PO"}, "FmlH": {"molecular_target": "FmlH (Escherichia coli, UniProt A0A0H2V7F6)", "assay": "ELISA of FmlH lectin domain binding with TF antigen as competitive ligand", "design": "species or system uropathogenic Escherichia coli (UPEC)", "conditions": "for loss of activity relative to parent compound I: FmlH ELISA IC50 ratio"}}, "data": [{"compound": "CC(=O)N[C@H]1[C@H](Oc2cccc(C(F)(F)F)c2-c2cccc(NS(C)(=O)=O)c2)O[C@H](CO)[C@H](O)[C@@H]1O", "note": "[I]", "values": [{"measurement": "oral bioavailability (F)", "setting": "[1]", "value": "< 1", "unit": "%"}, {"measurement": "metabolic stability", "setting": "[2]; SGF, SIF, mouse liver microsomes, blood plasma", "value": "good metabolic stability"}, {"measurement": "stability in plasma and simulated gut and intestinal fluids", "setting": "[2]", "value": "good stability"}]}, {"compound": "CC(=O)N[C@H]1[C@H](Oc2cccc(C(F)(F)F)c2-c2ccc(F)cc2)O[C@H](CO)[C@H](O)[C@@H]1O", "note": "[Compound 69]", "values": [{"measurement": "AUC relative to 67", "setting": "[3]", "value": "~4", "unit": "fold"}, {"measurement": "urine concentration relative to FmlH IC50", "setting": "Mouse pharmacokinetics", "value": "over 300 fold"}, {"measurement": "urine concentration achieved", "setting": "Mouse pharmacokinetics; high urine concentration quoted in the conclusion", "value": 61, "unit": "µM"}]}, {"compound": "CS(=O)(=O)Nc1cccc(-c2ccccc2C[C@@H]2O[C@H](CO)[C@H](O)[C@H](O)[C@H]2[N+](=O)[O-])c1", "note": "[Compound 34]", "values": [{"measurement": "IC50", "setting": "FmlH; FmlH ELISA, average of four replicates", "value": "all activity against FmlH was eliminated"}]}, {"compound": "CS(=O)(=O)Nc1cccc(-c2ccccc2C[C@@H]2O[C@H](CO)[C@H](O)[C@H](O)[C@H]2F)c1", "note": "[Compound 28]", "values": [{"measurement": "improvement of potency on replacing 2-position OH with F", "setting": "FmlH; FmlH ELISA, relative to 27", "value": 2, "unit": "fold"}]}, {"compound": "CC(=O)N[C@H]1[C@H](Oc2cccc(C(F)(F)F)c2-c2cccc(C(=O)NS(C)(=O)=O)c2)O[C@H](CO)[C@H](O)[C@@H]1O", "note": "[Compound 11]", "values": [{"measurement": "loss of activity relative to parent compound I", "setting": "FmlH", "value": "~ 10 fold"}]}, {"compound": "CC(=O)N[C@H]1[C@H](Oc2cccc(C(F)(F)F)c2-c2cccc(CS(C)(=O)=O)c2)O[C@H](CO)[C@H](O)[C@@H]1O", "note": "[Compound 9]", "values": [{"measurement": "loss of activity relative to parent compound I", "setting": "FmlH", "value": "~ 10 fold"}]}]}
